The experiment concerns the target T1, PD-1/PD-L1 (Homo sapiens, UniProt Q9NZQ7).
T1 construct: Recombinant human PD-L1 protein (19-238) with a His-tag at the C-terminus; purchased AcroBiosystems PD1-H5229 (PD-L1); PD1-H5257 (PD-1)
As to the kind of experiment: PD-1/PD-L1 Homogeneous Time-Resolved Fluorescence (HTRF) binding assay. As to conditions: recombinant human PD-L1 (19-238)-His 10 nM, human PD-1 (25-167)-Fc 3 nM, 25° C., PBS pH 7.4. How it is done:
Example A. PD-1/PD-L1 Homogeneous Time-Resolved Fluorescence (HTRF) Binding Assay
The assays were conducted in a standard black 384-well polystyrene plate with a final volume of 20 μL. Inhibitors were first serially diluted in DMSO and then added to the plate wells before the addition of other reaction components. The final concentration of DMSO in the assay was 1%. The assays were carried out at 25° C. in the PBS buffer (pH 7.4) with 0.05% Tween-20 and 0.1% BSA. Recombinant human PD-L1 protein (19-238) with a His-tag at the C-terminus was purchased from AcroBiosystems (PD1-H5229). Recombinant human PD-1 protein (25-167) with Fc tag at the C-terminus was also purchased from AcroBiosystems (PD1-H5257). PD-L1 and PD-1 proteins were diluted in the assay buffer and 10 μL was added to the plate well. Plates were centrifuged and proteins were preincubated with inhibitors for 40 minutes. The incubation was followed by the addition of 10 μL of HTRF detection buffer supplemented with Europium cryptate-labeled anti-human IgG (PerkinElmer-AD0212) specific for Fc and anti-His antibody conjugated to SureLight®-Allophycocyanin (APC, PerkinElmer-AD0059H). After centrifugation, the plate was incubated at 25° C. for 60 min. before reading on a PHERAstar FS plate reader (665 nm/620 nm ratio). Final concentrations in the assay were—3 nM PD1, 10 nM PD-L1, 1 nM europium anti-human IgG and 20 nM anti-His-Allophycocyanin. IC50 determination was performed by fitting the curve of percent control activity versus the log of the inhibitor concentration using the GraphPad Prism 5.0 software.

Each structure is given as a SMILES string.

T1 sequence (Q9NZQ7 19-238): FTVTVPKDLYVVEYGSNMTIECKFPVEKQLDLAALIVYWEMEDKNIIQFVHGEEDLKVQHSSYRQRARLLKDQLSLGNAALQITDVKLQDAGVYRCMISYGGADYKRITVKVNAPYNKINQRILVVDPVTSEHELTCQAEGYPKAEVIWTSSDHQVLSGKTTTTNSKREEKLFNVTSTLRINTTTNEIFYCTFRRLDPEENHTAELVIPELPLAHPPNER

For the compound `Cc1c(-c2ccccc2)cccc1-c1cnc2c(c1)CNCC2` [Example 20, 3-(2-methylbiphenyl-3-yl)-5,6,7,8-tetrahydro-1,6-naphthyridine], the IC50 lay within 100 to 1000 nM.
As to `Cc1c(NCC2CCCNC2)cccc1-c1ccccc1` (stereo not drawn) [Example 28, 2-methyl-N-(piperidin-3-ylmethyl)biphenyl-3-amine], the IC50 fell in the range of 1000 to 2000 nM.
For `COc1cccc(-c2cccc(Nc3ncccc3C(=O)NCCNCCO)c2C)c1F` [Example 39, 2-(2′-fluoro-3′-methoxy-2-methylbiphenyl-3-ylamino)-N-(2-(2-hydroxyethylamino)ethyl)nicotinamide] the value was 100 to 1000 nM.
For `Cc1c(-c2ccccc2)ccnc1-c1ccc(CN)cc1` [Example 21, (4-(3-methyl-4-phenylpyridin-2-yl)phenyl)methanamine], the IC50 lay within 100 to 1000 nM.
On to `Cc1c(Nc2ccc3c(c2)CCNC3)cccc1-c1ccccc1` [Example 15, N-(2-methylbiphenyl-3-yl)-1,2,3,4-tetrahydroisoquinolin-6-amine], for which the IC50 fell in the range of 100 to 1000 nM.
For `Cc1c(-c2ccccc2)cccc1N1CCC[C@@H](N)C1` [Example 26, (R)-1-(2-methylbiphenyl-3-yl)piperidin-3-amine] the value was 100 to 1000 nM.
Take `N#Cc1c(-c2ccccc2)csc1Nc1nccc2cc(CNCCO)cnc12` [Example 34, 2-[(3-{[(2-hydroxyethyl)amino]methyl}-1,7-naphthyridin-8-yl)amino]-4-phenylthiophene-3-carbonitrile]: the concentration for half-maximal inhibition (IC50) was in the range of 100 to 1000 nM.
Take `Cc1cc(CN2CCCC[C@H]2C(=O)O)ccc1OC1CCc2c(-c3ccccc3)cccc21` (stereo partly drawn) [Example 10, (2S)-1-(3-methyl-4-(4-phenyl-2,3-dihydro-1H-inden-1-yloxy)benzyl)piperidine-2-carboxylic acid]: the half-maximal inhibitory concentration (IC50) was in the range of 100 to 1000 nM.
Consider `Cc1c(C2=CCC(N3CCCC3)CC2)cccc1-c1ccccc1` (stereo not drawn) [Example 32, 1-(4-(2-methylbiphenyl-3-yl)cyclohex-3-enyl)pyrrolidine], for which the IC50 fell in the range of 100 to 1000 nM.
For `Cc1c(-c2ccccc2)cccc1N1CCc2cc(CNCCO)ccc2C1` [Example 14, 2-((2-(2-methylbiphenyl-3-yl)-1,2,3,4-tetrahydroisoquinolin-6-yl)methylamino)ethanol] the value was 100 to 1000 nM; for `CCN(C)CC(=O)N1Cc2nc(-c3cccc(-c4cccc(N5CCn6cncc6C5)c4C)c3C)sc2C1` [Example 38, 1-(2-(3′-(5,6-dihydroimidazo[1,5-a]pyrazin-7(8H)-yl)-2,2′-dimethylbiphenyl-3-yl)-4H-pyrrolo[3,4-d]thiazol-5(6H)-yl)-2-(ethyl(methyl)amino)ethanone], 10 to 100 nM; for `Cc1c(-c2ccccc2)cccc1N1CCC2(CCCC(=O)N2)CC1` [Example 30, 9-(2-methylbiphenyl-3-yl)-1,9-diazaspiro[5.5]undecan-2-one], 100 to 1000 nM.
Consider `Cc1c(-c2ccccc2)cccc1-c1ccc(CNCCO)cc1` [Example 7, 2-{[(2′-methyl-1,1′:3′,1″-terphenyl-4-yl)methyl]amino}ethanol], for which the IC50 is 10 to 100 nM.
In the case of `Cc1c(/C=C/c2ccc(CN3CCCC[C@@H]3C(=O)O)cn2)cccc1-c1ccccc1` [Example 8, (R,E)-1-((6-(2-(2-methyl-[1,1′-biphenyl]-3-yl)vinyl)pyridin-3-yl)methyl)piperidine-2-carboxylic acid], the IC50 fell in the range of 10 to 100 nM.
With `Cc1c(-c2ccccc2)cccc1-c1cnc2c(c1)CNC2` [Example 17, 3-(2-methylbiphenyl-3-yl)-6,7-dihydro-5H-pyrrolo[3,4-b]pyridine], the 50% inhibitory concentration (IC50) fell in the range of 100 to 1000 nM.
For `Cc1c(-c2nc3c(s2)CN(C(=O)CN(C)C)C3)cccc1-c1cccc(-c2nc3c(s2)CN(C(=O)CN2CC[C@@H](O)C2)C3)c1C` [Example 35, (R)-2-(dimethylamino)-1-(2-(3′-(5-(2-(3-hydroxypyrrolidin-1-yl)acetyl)-5,6-dihydro-4H-pyrrolo[3,4-d]thiazol-2-yl)-2,2′-dimethylbiphenyl-3-yl)-4H-pyrrolo[3,4-d]thiazol-5(6H)-yl)ethanone] the value was no more than 10 nM; for `Cc1c(NC(=O)c2cccn3c(CN4CCCC[C@H]4C(=O)O)cnc23)cccc1-c1ccccc1` [Example 11, (S)-1-((8-(2-methylbiphenyl-3-ylcarbamoyl)imidazo[1,2-a]pyridin-3-yl)methyl)piperidine-2-carboxylic acid], 100 to 1000 nM.
On to `COc1cccc(-c2cccc(Nc3nccc(CNCCO)c3F)c2Cl)c1F` [Example 3, 2-((2-(2-chloro-2′-fluoro-3′-methoxybiphenyl-3-ylamino)-3-fluoropyridin-4-yl)methylamino)ethanol], for which the IC50 is no more than 10 nM.
For `Cc1c(Nc2ccc3c(c2)CCN(C(CO)CO)C3)cccc1-c1ccccc1` [Example 18, 2-(6-(2-methylbiphenyl-3-ylamino)-3,4-dihydroisoquinolin-2(1H)-yl)propane-1,3-diol] the value was 100 to 1000 nM.
`O=C(Nc1ccc2cnc(-c3ccccc3)cc2c1Cl)c1ccc(CNCCO)cn1` [Example 12, N-(5-chloro-3-phenylisoquinolin-6-yl)-5-((2-hydroxyethylamino)methyl) picolinamide]: the IC50 lay in the range of 100 to 1000 nM.
Turning to `Cc1c(-c2ccccc2)cccc1-c1ccc2c(c1)CNC2` [Example 5, 5-(2-methylbiphenyl-3-yl)isoindoline], the IC50 fell in the range of 10 to 100 nM.
For the compound `OCC1(CNC2CCN(c3cccc(Nc4ccccc4)c3Cl)CC2)CCC1` [Example 23, (1-((1-(2-chloro-3-(phenylamino)phenyl)piperidin-4-ylamino)methyl)cyclobutyl)methanol], the IC50 is 1000 to 2000 nM.
With `NCc1ccc(-c2cccc(-c3ccccc3)c2Cl)cn1` [Example 6, (5-(2-chlorobiphenyl-3-yl)pyridin-2-yl)methanamine], the IC50 is 10 to 100 nM.
For `Cc1c(NC(=O)N2CCCC(N)C2)cccc1-c1ccccc1` (stereo not drawn) [Example 33, 3-amino-N-(2-methylbiphenyl-3-yl)piperidine-1-carboxamide] the value was 1000 to 2000 nM.
Turning to `Cc1c(-c2ccccc2)cccc1-c1ccc2nc(CN3CCCC[C@H]3C(=O)O)cc(C)c2c1` [Example 4, (S)-1-((4-methyl-6-(2-methylbiphenyl-3-yl)quinolin-2-yl)methyl)piperidine-2-carboxylic acid], the IC50 fell in the range of 10 to 100 nM.
`OCCNCc1ccc(CN2CCc3c(-c4ccccc4)cccc32)c(Cl)c1` [Example 40, 2-({3-chloro-4-[(4-phenyl-2,3-dihydro-1H-indol-1-yl)methyl]benzyl}amino)ethanol]: the IC50 was 100 to 1000 nM.
With `O[C@H]1CC[C@@H](NCc2ccc(N3CCCC(c4ccccc4)C3)cn2)CC1` (stereo partly drawn) [Example 22, Cis-4-((5-(3-phenylpiperidin-1-yl)pyridin-2-yl)methylamino)cyclohexanol], the IC50 is 100 to 1000 nM.
As for `Cc1c(Nc2nsc3nccnc23)cccc1-c1ccccc1` [Example 25, N-(2-methylbiphenyl-3-yl)isothiazolo[4,5-b]pyrazin-3-amine], the IC50 was in the range of 100 to 1000 nM.
For `CCN(C)CC(=O)N1Cc2nc(-c3cccc(-c4cccc(N5CCC6NCCC6C5)c4C)c3C)sc2C1` (stereo not drawn) [Example 37, 1-(2-(2,2′-dimethyl-3′-(tetrahydro-1H-pyrrolo[3,2-c]pyridin-5(6H,7H,7aH)-yl)biphenyl-3-yl)-4H-pyrrolo[3,4-d]thiazol-5(6H)-yl)-2-(ethyl(methyl)amino)ethanone] the value was 100 to 1000 nM; for `Cc1c(-c2ccccc2)cccc1-c1ccc2c(c1)CCNC2` [Example 13, 6-(2-methylbiphenyl-3-yl)-1,2,3,4-tetrahydroisoquinoline], 10 to 100 nM.
Regarding `Cc1c(-c2ccccc2)cccc1N1CCC(CN)CC1` [Example 27, (1-(2-methylbiphenyl-3-yl)piperidin-4-yl)methanamine], the IC50 was in the range of 100 to 1000 nM.
`CCN(C)CC(=O)N1Cc2nc(-c3cccc(-c4cccc(C#CC5CCNCC5)c4C)c3C)sc2C1` [Example 36, 1-(2-(2,2′-dimethyl-3′-(piperidin-4-ylethynyl)biphenyl-3-yl)-4H-pyrrolo[3,4-d]thiazol-5(6H)-yl)-2-(ethyl(methyl)amino)ethanone]: the IC50 is no more than 10 nM.
As to `Cc1c(-c2ccccc2)cccc1-c1cnn(C[C@@H]2CCCN2)c1` [Example 2, 4-(2-methylbiphenyl-3-yl)-1-[(2S)-pyrrolidin-2-ylmethyl]-1H-pyrazole], the IC50 is 10 to 100 nM.
As to `COc1cccc(-c2cccc(Nc3nccn4c(CNCCO)cnc34)c2C)c1F` [Example 9, 2-(((8-((2′-fluoro-3′-methoxy-2-methyl-[1,1′-biphenyl]-3-yl)amino)imidazo[1,2-a]pyrazin-3-yl)methyl)amino)ethan-1-ol], the half-maximal inhibitory concentration (IC50) fell in the range of 10 to 100 nM.
Turning to `OCC1(CNC2CCN(c3cccc(NCc4ccccc4)c3Cl)CC2)CCC1` [Example 24, (1-((1-(3-(benzylamino)-2-chlorophenyl)piperidin-4-ylamino)methyl)cyclobutyl)methanol], the IC50 is 100 to 1000 nM.
For `Cc1c(-c2ccccc2)cccc1N1CCC2(CCCCN2)CC1` [Example 31, 9-(2-methylbiphenyl-3-yl)-1,9-diazaspiro[5.5]undecane] the value was 100 to 1000 nM.

As usually defined, the IC50 is the concentration that inhibits the measured activity by half.

These data come from patent US20230226062A1, “HETEROCYCLIC COMPOUNDS AS IMMUNOMODULATORS” (Incyte Corporation, priority 2016, published 2023).
